The values below come from paper PMC4216211 (Journal of Medicinal Chemistry, 2014).

The target of one assay is rat brain TSPO (Rattus norvegicus, UniProt P16257). In kind it is binding. The conditions noted are these: for LipE: pKi (rat) minus clogD.
The next assay concerns the target human leukocyte LAB TSPO (Homo sapiens, UniProt P30536). Nature of the assay: Ligand binding affinity to human leukocyte LAB TSPO.
Another assay addresses human leukocyte HAB TSPO (Homo sapiens, UniProt P30536, T147A). Nature of the assay: Ligand binding affinity to human leukocyte HAB TSPO.
The subject of assay [1] is human leukocyte HAB and LAB TSPO. Nature of the assay: Human TSPO genotype sensitivity, Ki in LAB versus HAB leukocytes. Conditions: for (LAB Ki)/(HAB Ki): genotype sensitivity, ratio of Ki. In kind it is binding.
The test system of a further assay is TSPO in rat brain cortex. Conditions: read-out: IC50, inhibition of [3H]1; cited from earlier work.

rat brain TSPO, sequence (P16257 whole entry): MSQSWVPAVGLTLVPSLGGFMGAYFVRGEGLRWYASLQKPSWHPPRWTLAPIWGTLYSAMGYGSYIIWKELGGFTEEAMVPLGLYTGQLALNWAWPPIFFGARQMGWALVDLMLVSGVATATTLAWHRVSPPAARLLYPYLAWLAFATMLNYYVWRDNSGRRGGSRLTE
human leukocyte HAB TSPO, sequence (P30536 whole entry T147A): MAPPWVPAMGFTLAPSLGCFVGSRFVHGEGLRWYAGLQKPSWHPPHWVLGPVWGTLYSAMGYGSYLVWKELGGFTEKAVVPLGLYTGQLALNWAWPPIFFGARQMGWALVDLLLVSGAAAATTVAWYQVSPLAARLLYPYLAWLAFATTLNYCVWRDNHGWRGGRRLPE
human leukocyte LAB TSPO, sequence (P30536 whole entry): as the sequence (P30536 whole entry T147A) above, with A147T counted along it

What is called Ki is a measure of affinity in units of concentration, obtained from inhibition or displacement. High values mean a looser hold on the target, low ones a stronger hold on the target. `CC(Oc1cc(-c2ccncc2)nc2ccccc12)C(=O)N(C)c1ccccc1` (centres unmarked) [22c, N-methyl-N-phenyl-2-{[2-(pyridin-4-yl)quinolin-4-yl]oxy}propanamide]: the Ki stood at 0.22 ± 0.02 nM at rat brain TSPO, 7 ± 3 nM at human leukocyte LAB TSPO and 1 ± 0.5 nM on human leukocyte HAB TSPO. For the same compound, the LipE on rat brain TSPO came to 5.60 ± 0.04. Moreover, the “genotype sensitivity in words” value in assay [1] (LAB versus HAB TSPO) is on record as “much less sensitive”. The “(LAB Ki)/(HAB Ki)” value in assay [1] worked out at 7 ± 5.

With `CC(Cc1cc(-c2ccccc2)nc2ccccc12)C(=O)N(C)c1ccccn1` (centres unmarked) [10o, N,2-dimethyl-3-(2-phenylquinolin-4-yl)-N-(pyridin-2-yl)propanamide], the Ki turned out to be 1.6 ± 0.6 nM on rat brain TSPO, 119 ± 56 nM at human leukocyte LAB TSPO and 4 ± 1 nM on human leukocyte HAB TSPO. Moreover, the LipE at rat brain TSPO stood at 3.6 ± 0.2. Also, the “(LAB Ki)/(HAB Ki)” value in assay [1] turned out to be 30 ± 18.

In general, IC50 refers to the concentration that gives 50% inhibition. As to `CCN(CC)C(=O)C(C)Cc1cc(-c2ccccc2)nc2ccccc12` (centres unmarked) [10a, N,N-Diethyl-2-methyl-3-(2-phenylquinolin-4-yl)propanamide], at rat brain TSPO, the Ki was determined as 2.1 ± 0.6 nM and the LipE was determined as 4.4 ± 0.1. Also, in the assay with TSPO in rat brain cortex, the IC50 is 13.7 nM.
